These are literature values, as cited in patent publication US20120245201A1, “Isopropylphenidate for Treatment of Attention-Deficit/Hyperactivity Disorder and Fatigue-Related Disorders and Conditions” (priority 2009, published 2012).

For data set [1] the following is noted: metabolite after MPH; cited from earlier work.
The subject of the next data set is mouse model. As to conditions: 5 mg/kg i.p.; cited from earlier work.

On to `O=C(O)C(c1ccccc1)C1CCCCN1` (centres unmarked) [RA, ritalinic acid], for which the “blood concentrations relative to the parent compound” value in data set [1] is 30-60 times.

With `CCOC(=O)C(c1ccccc1)C1CCCCN1` (stereo not drawn) [d-EPH], the motor activity result with mouse model is given as “significant motor activity”.
